Data published in patent publication US20250352615A1, “COMPOSITIONS AND METHODS FOR THE MODULATION OF PIEZO1 AND TRPV4” (Duke University, priority 2021, published 2025).

Assays:
TRPV4 = molecular target: T1, TRPV4 (Mus musculus, UniProt Q9EPK8); test: Calcium imaging of TRPV4-mediated [Ca2+]i in pancreatic acini (agonists, shear stress, Yoda1 sustained phase); type: cell-based; details: Yoda1
T1 construct: endogenous in cells; host or cells: freshly isolated mouse pancreatic acini (C57BL/6J WT)
T1 sequence (Q9EPK8 whole entry): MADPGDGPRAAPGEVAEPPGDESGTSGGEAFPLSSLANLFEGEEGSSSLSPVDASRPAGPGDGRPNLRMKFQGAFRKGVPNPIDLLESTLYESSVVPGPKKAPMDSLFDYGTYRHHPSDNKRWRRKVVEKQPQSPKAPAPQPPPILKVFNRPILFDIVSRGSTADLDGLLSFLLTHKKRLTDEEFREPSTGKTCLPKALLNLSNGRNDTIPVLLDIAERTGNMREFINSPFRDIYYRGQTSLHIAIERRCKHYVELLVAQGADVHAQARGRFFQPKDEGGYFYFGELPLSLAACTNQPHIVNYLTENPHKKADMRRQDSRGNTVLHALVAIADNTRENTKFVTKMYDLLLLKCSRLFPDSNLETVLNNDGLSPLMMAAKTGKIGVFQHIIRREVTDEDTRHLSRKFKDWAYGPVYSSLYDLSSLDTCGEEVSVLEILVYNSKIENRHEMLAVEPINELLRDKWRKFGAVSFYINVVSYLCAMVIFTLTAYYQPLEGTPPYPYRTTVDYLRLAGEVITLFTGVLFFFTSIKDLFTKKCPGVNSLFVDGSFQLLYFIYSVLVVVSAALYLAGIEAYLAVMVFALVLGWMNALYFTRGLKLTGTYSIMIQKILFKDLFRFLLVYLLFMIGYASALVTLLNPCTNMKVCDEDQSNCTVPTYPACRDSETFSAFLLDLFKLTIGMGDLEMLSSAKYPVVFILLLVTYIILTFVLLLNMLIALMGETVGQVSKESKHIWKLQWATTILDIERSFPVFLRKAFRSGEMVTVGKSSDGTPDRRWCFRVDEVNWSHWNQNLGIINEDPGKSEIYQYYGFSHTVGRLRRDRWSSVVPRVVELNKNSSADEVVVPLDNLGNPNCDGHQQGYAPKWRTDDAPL
Procedure: (§1) Mouse pancreatic acini were isolated using a standard collagenase digestion protocol. Isolated acini were plated on a thin-layered, Matrigel-coated, glass-bottom, culture plate (MatTek, P35G-0-14-C). Freshly isolated acini were used in each experiment.
Parallel-plate fluid flow chambers (μ-Slide I 0.4 Luer, and μ-Slide I 0.2 Luer from Ibidi GmbH) were used to measure the shear stress-induced changes in intracellular calcium, mitochondrial depolarization, and trypsin activation. The constant flow rate with shear stress (T) was determined as follows: τ=η×[…] φ for μ-Slide I 0.4 Luer and τ=η×330.4 φ for μ-Slide I 0.2 Luer, where η=viscosity of the medium and φ=flow rate (according to the manufacturer's instructions, Ibidi).
(§2) Calcium imaging in pancreatic acini was performed as previously described. The chemicals used in calcium imaging experiments included the following: Yoda1 (Tocris; 5586), GsMTx4 (Abcam; ab141871), 5′,6′-EET (Santa Cruz Biotechnology; sc-221066), AA (Millipore Sigma; A3611), HC067047 (Tocris; 4100), GSK1016790A (Millipore Sigma; G0798), RN1734 (Tocris; 3746), AACOCF3 (Tocris; 1462), YM26734 (Tocris; 2522), GF109203X (Tocris; 0741), and CCK8 (Sigma-Aldrich).

pancreatic acini = test: Trypsinogen activation in pancreatic acini (BZiPAR); type: cell-based, mouse
Procedure: To visualize Piezo1-induced trypsinogen activation, acini were loaded with active trypsin enzyme substrate BZiPAR (10 μM). Na-HEPES buffer with 2 mM Ca^2+ was used during imaging. A Zeiss Axio observer Z1 with a high-sensitivity EMCCD camera with a ×40/0.75 EC-Plan-NeoFluar DIC objective was used to capture the Z-stack images with stack thickness of 3 μm at an interval of 12 seconds. The BZiPAR fluorescent wavelength Ex/Em was 498/521 nm. BZiPAR was excited at 470-510 nm and emission collected at 495-550 nm. The captured images were analyzed with MetaMorph software (Molecular Devices).

human PSCs = test: Human PSC activation and fibrogenic response (fat droplets, cell shape, ECM mRNA and immunostaining); type: cell-based
Procedure: Mouse and human PSCs were isolated using collagenase digestion. Modified Krebs Henseleit Buffer (KHB) solution (100 mL) was prepared as previously described by Romac et al., Nat. Commun. 9(1):1715 (2018). Pancreatic tissue was digested with 2 mg of collagenase NB 8 (SERVA, catalog 17456) dissolved in 10 mL of modified KHB solution containing 1 mg soybean trypsin inhibitor (SBTI 1-S; Millipore Sigma, catalog T9003) and 20 mg BSA (Thermo Fisher Scientific; BP1600-100). Digestion solution (5 mL) was used to inflate the pancreas. Pancreas with 5 mL of digestion solution was incubated in a shaking water bath for 10 minutes at 37° C. The solution was then discarded. The pancreas tissue was cut into small pieces and digested with fresh 5 mL digestion buffer. Tissue was incubated in a shaking water bath for 40 minutes at 37° C. The cells were then separated from tissue by pipetting up-down with a 10 mL pipette and passed sequentially through a 70 μm and a 40 μm cell strainer. The filtrate was centrifuged at 150×g for 3 minutes at room temperature. The cells were washed with 10 mL Leibovitz's media (Thermo Fisher Scientific, catalog 11415-064), passed through a 20 μm filter, and centrifuged at 80×g for 3 minutes at room temperature. The supernate was removed, and isolated stellate cells were plated on a thin-layered Matrigel-coated glass bottom culture plate (MatTek, P35G-0-14-C). Before plating the cells, Matrigel solution (Corning, catalog 354234) at a ratio of 1.5:100 DMEM/F12 (Thermo Fisher Scientific, catalog 11330-032) was poured onto the culture plate and incubated for 2 hr at 37° C. to form a thin layer of Matrigel coating. Matrigel mixture was removed, and the plate was washed with PBS before cells were plated. Cell culture media, DMEM/F12 with 5% FBS was used for mouse stellate cells. Fresh, human pancreatic tissue was digested with collagenase as described above with modifications. Collagenase (2.5 mg) in 10 mL of modified KHB solution was used for digestion. The digested tissues were filtered through a 100 μm cell strainer. The cells were cultured with DMEM/F12 with 10% FBS in a Matrigel-coated plate. After 24 hr, the cell media was replaced with fresh media to remove unattached and dead cells. After 2 days, cells were immunostained for GFAP and used for experiments. Perinuclear fat droplets were stained with BODIPY 493/503 (4,4-Difluoro-1,3,5,7,8-Pentamethyl-4-Bora-3a,4a-Diaza-s-Indacene; Invitrogen, catalog D3922) to confirm stellate cell quiescence. The cell viability following Yoda1 treatment was analyzed using the Live/Dead cell imaging kit (Thermo Fisher Scientific, catalog R37601). RNAs were isolated using the RiboPure Kit (Invitrogen, catalog AM1924) according to manufacturer's instructions.
Fluid shear stress and mechanical pushing applied to stellate cells were achieved as previously described by Wang et al., J. Clin. Invest. 126(12): 4527-4536 (2016). Parallel-plate fluid flow chambers (μ-Slide I 0.4 Luer, or μ-Slide I 0.2 Luer from Ibidi) were used for fluid shear stress experiments. The fluid shear stress (T) was calculated using the formula: τ=η×[…] φ for μ-Slide I 0.4 Luer and τ=η×330.4 φ for μ-Slide I 0.2 Luer, where r represents viscosity of the medium and φ represents flow rate (according to the manufacturer's instructions, Ibidi). Mechanical pushing was achieved by applying a blunt borosilicate glass pipette once to the cell membrane with a deflection of 2-3 μm for 1 second using a micromanipulator (World Precision Instruments).
Mouse and human PSCs were washed with PBS (pH 7.4) and fixed with 4% paraformaldehyde for 10 minutes at room temperature. The fixed cells were treated with 0.1% Triton X-100. […]

Piezo1 = molecular target: T2, Piezo1 (Mus musculus, UniProt E2JF22); test: Calcium imaging of Yoda1 (Piezo1)-mediated [Ca2+]i in pancreatic acini; type: cell-based; details: pancreatic acini, bath calcium 2 mM, Yoda1 25 μM
T2 construct: endogenous in cells; host or cells: freshly isolated mouse pancreatic acini (WT = Piezo1 fl/fl on a C57BL/6J background)
T2 sequence (E2JF22 whole entry): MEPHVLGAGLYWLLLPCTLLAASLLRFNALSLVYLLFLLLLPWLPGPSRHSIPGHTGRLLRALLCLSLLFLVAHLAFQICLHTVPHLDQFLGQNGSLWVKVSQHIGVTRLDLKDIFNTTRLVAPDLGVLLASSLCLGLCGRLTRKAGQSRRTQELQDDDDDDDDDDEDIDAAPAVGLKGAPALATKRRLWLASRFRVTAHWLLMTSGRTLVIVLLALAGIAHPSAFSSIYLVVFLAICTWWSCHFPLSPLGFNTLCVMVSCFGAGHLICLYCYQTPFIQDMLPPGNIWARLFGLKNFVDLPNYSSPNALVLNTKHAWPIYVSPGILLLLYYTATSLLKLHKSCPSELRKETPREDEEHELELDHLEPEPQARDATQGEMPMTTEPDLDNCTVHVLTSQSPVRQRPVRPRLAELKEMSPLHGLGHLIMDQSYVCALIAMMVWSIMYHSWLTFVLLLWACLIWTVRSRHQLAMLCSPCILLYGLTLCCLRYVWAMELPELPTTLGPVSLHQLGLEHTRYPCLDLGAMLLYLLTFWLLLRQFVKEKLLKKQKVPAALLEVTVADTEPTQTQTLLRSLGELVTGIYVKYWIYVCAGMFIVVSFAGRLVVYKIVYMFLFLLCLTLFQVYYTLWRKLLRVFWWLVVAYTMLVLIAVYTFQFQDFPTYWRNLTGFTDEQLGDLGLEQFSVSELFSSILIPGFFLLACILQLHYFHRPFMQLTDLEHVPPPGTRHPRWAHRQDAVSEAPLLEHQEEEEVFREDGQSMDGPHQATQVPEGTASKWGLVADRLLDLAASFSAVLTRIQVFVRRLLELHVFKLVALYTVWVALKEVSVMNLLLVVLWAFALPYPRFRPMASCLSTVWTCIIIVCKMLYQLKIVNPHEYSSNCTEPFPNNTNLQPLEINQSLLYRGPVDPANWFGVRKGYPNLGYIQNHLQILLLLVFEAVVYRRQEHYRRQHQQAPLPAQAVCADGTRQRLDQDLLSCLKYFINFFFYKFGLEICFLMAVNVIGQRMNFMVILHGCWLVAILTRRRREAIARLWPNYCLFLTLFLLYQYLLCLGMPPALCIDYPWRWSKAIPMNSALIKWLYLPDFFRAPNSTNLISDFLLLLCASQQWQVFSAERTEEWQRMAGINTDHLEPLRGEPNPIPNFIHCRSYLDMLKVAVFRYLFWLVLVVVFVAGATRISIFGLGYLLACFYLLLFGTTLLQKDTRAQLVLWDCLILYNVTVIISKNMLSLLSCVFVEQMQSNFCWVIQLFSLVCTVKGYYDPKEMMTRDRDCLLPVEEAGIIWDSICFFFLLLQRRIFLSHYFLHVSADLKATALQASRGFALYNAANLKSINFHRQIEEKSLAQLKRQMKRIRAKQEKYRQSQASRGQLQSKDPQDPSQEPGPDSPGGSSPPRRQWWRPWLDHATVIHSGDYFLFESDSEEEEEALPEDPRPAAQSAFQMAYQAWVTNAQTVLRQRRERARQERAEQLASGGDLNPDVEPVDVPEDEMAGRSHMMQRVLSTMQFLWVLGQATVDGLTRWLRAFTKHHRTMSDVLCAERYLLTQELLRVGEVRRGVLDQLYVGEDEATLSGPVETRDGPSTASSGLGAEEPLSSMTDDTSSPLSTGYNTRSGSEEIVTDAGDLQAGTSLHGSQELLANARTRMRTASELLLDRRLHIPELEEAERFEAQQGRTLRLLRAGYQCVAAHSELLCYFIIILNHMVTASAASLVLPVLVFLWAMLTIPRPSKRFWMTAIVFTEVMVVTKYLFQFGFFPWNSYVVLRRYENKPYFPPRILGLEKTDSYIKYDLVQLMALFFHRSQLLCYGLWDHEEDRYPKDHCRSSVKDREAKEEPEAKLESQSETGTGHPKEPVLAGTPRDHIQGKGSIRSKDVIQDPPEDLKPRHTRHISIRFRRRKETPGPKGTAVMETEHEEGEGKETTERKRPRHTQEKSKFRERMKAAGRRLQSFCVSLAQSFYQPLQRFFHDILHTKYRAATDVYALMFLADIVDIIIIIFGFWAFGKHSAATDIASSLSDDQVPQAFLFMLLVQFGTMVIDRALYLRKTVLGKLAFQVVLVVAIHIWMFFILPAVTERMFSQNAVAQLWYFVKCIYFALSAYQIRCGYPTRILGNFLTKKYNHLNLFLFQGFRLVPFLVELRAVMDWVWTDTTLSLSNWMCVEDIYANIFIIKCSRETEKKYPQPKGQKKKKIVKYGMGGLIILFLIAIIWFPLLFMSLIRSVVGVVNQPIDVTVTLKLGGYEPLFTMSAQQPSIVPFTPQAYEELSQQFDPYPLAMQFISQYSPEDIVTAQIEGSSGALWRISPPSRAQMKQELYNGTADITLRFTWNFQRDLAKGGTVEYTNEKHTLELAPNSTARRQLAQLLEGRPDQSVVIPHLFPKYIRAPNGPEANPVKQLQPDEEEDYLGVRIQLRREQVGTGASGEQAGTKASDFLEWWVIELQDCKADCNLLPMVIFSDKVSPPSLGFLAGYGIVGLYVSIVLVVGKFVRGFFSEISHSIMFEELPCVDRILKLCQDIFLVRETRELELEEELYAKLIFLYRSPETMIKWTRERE
Procedure: as §1, §2

Clc1cccc(Cl)c1CSc1nnc(-c2cnccn2)s1 [Yoda1]
[Ca2+]i response in acini from TRPV4-KO mice (TRPV4): only transient elevation in [Ca^2+]i
trypsin activation in acinar cells from Piezo1aci-KO mice (pancreatic acini; Yoda1): did not respond to Yoda1
trypsin activation (BZiPAR fluorescence) (pancreatic acini; Yoda1 50 μM or CCK 10 nM): activated trypsin in pancreatic acini over time
time to trypsin activation after application (pancreatic acini; Yoda1 50 μM, CCK 10 nM): ≤ 10 min
Fibronectin, collagen type I, and Piezo1 mRNA levels (human PSCs; Yoda1 25 μM, 24 hr): significantly elevated
TGF-β1 gene expression (human PSCs; Yoda1 25 μM, 24 hr): stimulation of profibrotic TGF-β1
mean cell area and maximum diameter (mean Feret's diameter-max) (human PSCs; Yoda1 25 μM, 24 hr): significant increase in mean cell area and maximum diameter
PSCs that had lost their perinuclear fat droplets (human PSCs; Yoda1 25 μM, within 24 hours): ~80%
fibronectin and collagen type I immunostaining (human PSCs; after 4 days of Yoda1 25 μM): abundant
[Ca2+]i response to Yoda1 (Piezo1): initial transient Ca^2+ rise, followed by sustained intracellular calcium elevation
